Data as given in PubChem BioAssay (NCI).
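How tested: cells in 96-well plates exposed to compound for 48 hours at five concentrations. GI50: concentration for 50% inhibition of growth. Definition used: TGI = concentration required for complete inhibition of growth.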

Key:
Assay in all cases: DTP human tumour cell line panel, 48 h
CAKI-1 renal = system: CAKI-1 renal
KM12 colon = system: KM12 colon
NCI-H226 lung = system: NCI-H226 lung
HCC-2998 colon = system: HCC-2998 colon
MOLT-4 leukemia = system: MOLT-4 leukemia
K-562 leukemia = system: K-562 leukemia
SF-295 CNS = system: SF-295 CNS
HL-60(TB) leukemia = system: HL-60(TB) leukemia
SW-620 colon = system: SW-620 colon
NCI/ADR-RES ovarian = system: NCI/ADR-RES ovarian

SMILES | TGI (CAKI-1 renal) [µM] | TGI (KM12 colon) [µM] | TGI (NCI-H226 lung) [µM] | TGI (HCC-2998 colon) [µM] | TGI (MOLT-4 leukemia) [µM] | TGI (K-562 leukemia) [µM] | TGI (SF-295 CNS) [µM] | TGI (HL-60(TB) leukemia) [µM] | TGI (SW-620 colon) [µM] | TGI (NCI/ADR-RES ovarian) [µM] | GI50 (CAKI-1 renal) [µM] | GI50 (KM12 colon) [µM] | GI50 (NCI-H226 lung) [µM] | GI50 (HCC-2998 colon) [µM] | GI50 (MOLT-4 leukemia) [µM] | GI50 (K-562 leukemia) [µM] | GI50 (SF-295 CNS) [µM] | GI50 (HL-60(TB) leukemia) [µM] | GI50 (SW-620 colon) [µM] | GI50 (NCI/ADR-RES ovarian) [µM]
OCCNC1c2cc(Cl)ccc2-c2c(Cl)cc(Cl)cc21 (stereo not given) | > 100 | > 100 | > 100 | > 100 | 47.6 | > 100 | > 100 | 51.4 | > 100 | > 100 | – | – | – | – | – | – | – | – | – | –
O=C(CCCCCCN1CC(=O)N2[C@@H](c3ccc(Cl)c(Cl)c3)c3[nH]c4ccccc4c3C[C@H]2C1=O)NO | 8.71 | 9.29 | 12.2 | 8.38 | 17.3 | 21.4 | 8 | 4.32 | 9.3 | > 33.3 | 3.43 | 3.8 | 4.52 | 3.9 | 1.12 | 1.54 | 3.66 | 1.11 | 1.97 | > 33.3
CC1OC(OC2C(O)CC(OC3C(O)CC(OC4CCC5(C)C(CCC6C5CC(O)C5(C)C(C7=CC(=O)OC7)CCC65O)C4)OC3C)OC2C)CC(O)C1O (stereo not given) | 0.204 | 0.28 | 0.266 | 0.451 | 0.0619 | 0.122 | 0.171 | 0.0564 | 0.165 | 0.145 | 0.0416 | 0.0824 | 0.137 | 0.146 | 0.0252 | 0.0319 | 0.0317 | 0.0253 | 0.0423 | 0.0385
CC(=O)NCc1cccc(C#Cc2cncnc2Nc2ccc(OCc3cccc(F)c3)c(Cl)c2)c1 | > 23.7 | > 25 | > 25 | > 25 | > 25 | > 25 | > 25 | > 22.5 | > 25 | > 25 | 2.04 | 11.1 | > 21.1 | 9.04 | 7.42 | 10.1 | 8.02 | 7.76 | 18.3 | 7.76
CC(C)(O)CNc1nc(Nc2ccnc(C(F)(F)F)c2)nc(-c2cccc(C(F)(F)F)n2)n1 | > 100 | 43.7 | 58.2 | 43.7 | 41.8 | > 100 | 35.3 | 58.2 | 86.5 | 53.8 | 29.6 | 16.4 | 20.8 | 20.3 | 13.7 | 29.4 | 17.1 | 21.1 | 26.7 | 17.1
COC(=O)c1cncc(/C=C/c2c(C)cc(O)cc2C)c1 | > 25 | 24.6 | > 25 | > 25 | > 20.1 | > 19 | > 25 | 5.96 | > 25 | > 25 | > 16.2 | 7.76 | > 12.7 | 13.3 | 4.19 | 2.32 | > 19.1 | 2.25 | 8.63 | 7.3
Cc1ccc(-c2nc([P+](c3ccccc3)(c3ccccc3)c3ccccc3)c(S(=O)(=O)c3ccc(C)cc3)o2)cc1 | 2.71 | 3.83 | 24.6 | 3.01 | 4.63 | 3.22 | 10.7 | 4.38 | 2.47 | 18 | 1.36 | 1.75 | 5.05 | 1.45 | 1.06 | 0.312 | 2.91 | 1.67 | 0.929 | 2.94
C[N+](C)(C)CC1CCCC1=O (stereo not given) | 6.61 | 20.6 | 34.6 | 29.9 | 4.4 | > 100 | 36.4 | > 20.2 | 1.07 | 4.05 | – | – | – | – | – | – | – | – | – | –
COC(=O)CCCCC(=O)c1c(C)[nH]c(/C=C2\N=C(c3ccc[nH]3)C=C2OC)c1C | 2.49 | 1.96 | 2.87 | 4.19 | 1.74 | 1.77 | 3.05 | 1.03 | 1.54 | 1.91 | 1.03 | 0.54 | 1.17 | 1.96 | 0.103 | 0.403 | 1.52 | 0.273 | 0.395 | 0.504
Cc1cccc2c3c(sc12)C(c1ccc(Cl)cc1)C(C#N)=C(N)O3 (stereo not given) | 14.5 | 10.7 | 7.46 | 6.43 | 13.7 | 14.2 | 0.992 | 1.21 | 11.6 | 2.46 | 0.295 | 0.428 | 0.763 | 0.67 | 0.497 | 0.285 | 0.26 | 0.3 | 0.416 | 0.302
